Reference: article PMC10322960 (European Journal of Drug Metabolism and Pharmacokinetics, 2023)
“Also recorded” adds a separate entry of the source.

Legend:
human liver microsomes = test: Human liver microsome incubation with or without chemical enzyme inhibitors; format: in vitro ADME
CYP2C8 = biological target: T1, CYP2C8 (Homo sapiens, UniProt P10632); test: In vitro P450 inhibition, recombinant CYP2C8; format: in vitro ADME
T1 sequence (P10632 1-490): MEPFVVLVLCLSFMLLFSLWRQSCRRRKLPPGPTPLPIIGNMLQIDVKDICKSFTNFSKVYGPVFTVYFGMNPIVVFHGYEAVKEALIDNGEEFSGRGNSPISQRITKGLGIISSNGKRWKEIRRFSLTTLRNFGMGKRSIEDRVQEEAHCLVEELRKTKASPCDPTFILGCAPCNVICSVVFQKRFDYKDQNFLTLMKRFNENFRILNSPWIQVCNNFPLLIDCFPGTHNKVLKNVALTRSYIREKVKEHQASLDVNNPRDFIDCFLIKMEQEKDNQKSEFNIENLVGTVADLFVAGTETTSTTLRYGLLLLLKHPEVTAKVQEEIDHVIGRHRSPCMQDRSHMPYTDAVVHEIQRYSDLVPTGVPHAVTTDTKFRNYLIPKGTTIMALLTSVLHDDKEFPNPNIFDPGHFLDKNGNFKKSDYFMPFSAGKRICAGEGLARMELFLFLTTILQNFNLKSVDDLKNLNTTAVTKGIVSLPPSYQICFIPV

OAT1 = biological target: T2, OAT1 (Homo sapiens, UniProt Q4U2R8); test: OAT1 uptake inhibition assay; format: in vitro ADME; details: 0.63–40 μM
T2 sequence (Q4U2R8 1-563): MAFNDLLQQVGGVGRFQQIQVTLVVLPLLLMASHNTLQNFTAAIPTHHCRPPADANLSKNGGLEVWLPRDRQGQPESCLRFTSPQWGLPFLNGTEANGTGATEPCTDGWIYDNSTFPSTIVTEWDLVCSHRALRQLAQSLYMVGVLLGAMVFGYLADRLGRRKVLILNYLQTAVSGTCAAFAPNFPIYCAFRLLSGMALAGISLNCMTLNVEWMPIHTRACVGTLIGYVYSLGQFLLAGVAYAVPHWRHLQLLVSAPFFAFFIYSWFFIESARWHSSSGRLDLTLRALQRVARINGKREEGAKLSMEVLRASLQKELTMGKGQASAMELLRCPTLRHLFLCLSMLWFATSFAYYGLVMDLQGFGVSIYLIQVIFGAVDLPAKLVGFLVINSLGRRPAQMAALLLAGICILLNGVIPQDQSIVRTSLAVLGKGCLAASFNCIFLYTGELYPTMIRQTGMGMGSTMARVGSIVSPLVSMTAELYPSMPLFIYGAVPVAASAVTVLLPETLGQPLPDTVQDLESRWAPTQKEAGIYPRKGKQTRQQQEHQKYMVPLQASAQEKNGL

OATP1B1 [1] = biological target: T3, OATP1B1 (Homo sapiens, UniProt Q9Y6L6); test: OATP1B1 uptake inhibition assay; format: in vitro ADME
T3 sequence (Q9Y6L6 1-691): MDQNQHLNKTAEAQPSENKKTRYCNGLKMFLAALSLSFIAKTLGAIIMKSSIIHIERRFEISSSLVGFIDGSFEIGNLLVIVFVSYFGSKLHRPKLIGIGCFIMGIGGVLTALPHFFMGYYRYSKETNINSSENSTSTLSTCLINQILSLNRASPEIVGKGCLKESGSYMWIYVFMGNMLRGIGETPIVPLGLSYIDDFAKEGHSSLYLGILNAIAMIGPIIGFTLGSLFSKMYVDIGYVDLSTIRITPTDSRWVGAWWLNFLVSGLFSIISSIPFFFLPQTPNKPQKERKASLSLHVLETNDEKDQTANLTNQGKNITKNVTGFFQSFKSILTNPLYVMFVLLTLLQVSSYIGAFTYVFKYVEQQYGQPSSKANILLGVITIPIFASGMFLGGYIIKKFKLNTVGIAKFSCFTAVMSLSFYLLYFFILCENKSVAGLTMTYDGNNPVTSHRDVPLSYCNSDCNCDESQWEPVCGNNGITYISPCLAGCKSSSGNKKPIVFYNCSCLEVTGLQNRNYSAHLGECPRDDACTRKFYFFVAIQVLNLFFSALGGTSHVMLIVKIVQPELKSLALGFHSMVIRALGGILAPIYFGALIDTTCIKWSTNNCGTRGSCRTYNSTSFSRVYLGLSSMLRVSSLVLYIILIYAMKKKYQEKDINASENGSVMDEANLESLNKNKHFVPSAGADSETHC

OATP1B1 [2] = biological target: T3, OATP1B1; test: OATP1B1 uptake substrate assay; format: in vitro ADME
[3] = Phase 1 clinical drug–drug interaction study, plasma pharmacokinetics; format: in vivo, human
[4] = Phase 1 clinical drug–drug interaction study, safety assessment; format: in vivo, human
CYP3A4 = details: ocedurenone at 0.1, 1, or 10 μM, 72 h; inducer criterion 40%
[5] = following 0.5-mg dose at steady state; not from this study, ref not given; cited from earlier work
[6] = ocedurenone + itraconazole (test) vs ocedurenone alone (reference), Cohort 1
[7] = ocedurenone + rifampin (test) vs ocedurenone alone (reference), Cohort 2
[8] = Cohort 2, 12 subjects, mild in severity
[9] = rifampin cohort, 12 participants

Structure (SMILES): N#Cc1ccc(N2N=C3c4ccc(C(=O)N5CCC(O)CC5)nc4CC[C@@H]3[C@@H]2C2CCCC2)cc1Cl [Ocedurenone, ocedurenone]
- stability in human hepatic microsomes (human liver microsomes): stable
- ocedurenone metabolism in HLM with chemical inhibitor added (human liver microsomes; 1-aminobenzotriazole or ketoconazole added separately, 3 µm ocedurenone): inhibited
- percentage remaining activity of CYP2C8 (CYP2C8; ocedurenone at 200 μM): 26.4%
- IC50 (CYP2C8; read-out: IC50 CYP2C8, recombinant CYP, results section): > 10 µM
- inhibition category CYP2C8 (CYP2C8; recombinant enzyme): weak inhibition (IC50 >10 μM categorized as weak inhibition)
- interaction with human OAT1 transporter (inhibition) (OAT1): No interaction
- maximum inhibition of OATP1B1-mediated probe substrate accumulation (OATP1B1 [1]; at 40 µM): 72%
- IC50 (OATP1B1 [1]; read-out: Inhibition results (IC50), OATP1B1 UPT, uptake assay): 21.9 µM
- Substrate, OATP1B1 UPT (OATP1B1 [2]): not likely to be a substrate
- Maximum fold accumulation, OATP1B1 UPT (OATP1B1 [2]; transporter-expressing vs control cells, 0.04–40 µm): 1.0
- geometric least squares mean ratio (test:reference) and 90% CI, AUC0-inf [3, 6]: 199.5 (182.3, 218.3)
- geometric least squares mean ratio (test:reference) and 90% CI, AUClast [3, 6]: 161.0 (152.3, 170.3)
- geometric least squares mean ratio (test:reference) and 90% CI, Cmax [3, 6]: 107.4 (103.2, 111.8)
- geometric least squares mean ratio (test:reference) and 90% CI, AUC0-inf [3, 7]: 17.2 (16.2, 18.2)
- geometric least squares mean ratio (test:reference) and 90% CI, AUClast [3, 7]: 17.5 (16.6, 18.5)
- geometric least squares mean ratio (test:reference) and 90% CI, Cmax [3, 7]: 73.4 (69.5, 77.5)
- effect of rifampin on ocedurenone pharmacokinetics (interaction class) ([3]; strong CYP3A4 inducer rifampin): strong (> 5-fold)
- effect of itraconazole on ocedurenone exposure (interaction class) ([3]; strong CYP3A inhibitor itraconazole): weak (1.25- to 2-fold)
- treatment-emergent AEs considered related to ocedurenone ([4]; Cohort 1 (itraconazole cohort), 12 subjects): No treatment-emergent AEs; also recorded: no treatment-emergent adverse events
- number of treatment-emergent AEs considered related to the drug [4, 8]: 5
- subjects with treatment-emergent AEs considered related to the drug [4, 8]: 25.0%
- participants with headache (TEAE related to ocedurenone) [4, 9]: 16.7%
- participants with hyperhidrosis (TEAE related to ocedurenone) [4, 9]: 8.3%
- participants with nausea (TEAE related to ocedurenone) [4, 9]: 8.3%
- participants with nervousness (TEAE related to ocedurenone) [4, 9]: 8.3%
- tolerability ([4]; single 0.5-mg dose alone and with itraconazole or rifampin, healthy participants): safe and well-tolerated
- percent CYP3A4 induction (of positive control) (CYP3A4): lower than 40%
- plasma Cmax at steady state [5]: 32 to 40 ng/mL
